Columns and labels:
[1] = system: SOS; experiment: Guanine nucleotide-exchange factor assay (mantdGDP fluorescence); assay type: biochemical; settings: 5 µM KRas1-169, 10 µM mantdGDP, 0.25 or 0.5 µM SOS
Method: SOS-catalysed nucleotide exchange was monitored at 25 °C in a FluoroMax-3 spectrofluorometer (excitation at 360 nm, emission at 440 nm) in 20 mM HEPES (pH 7.5), 100 mM NaCl, 2 mM MgCl2, and 1 mM TCEP. 5 µM KRas1-169 was mixed with 10 µM mantdGDP and subsequently with different concentrations of SOS (0.25 µM and 0.5 µM) (Figure 3A; Figure 3—figure supplement 1).

[2] = system: Ras pathway (pcRaf, pAkt, pErk, pS6); experiment: Electroporation into HeLa cells, western blot of downstream signalling; assay type: cell-based, human; settings: electroporation of 50-300 µg protein
Method: (§1) HeLa cells were obtained from the American Type Culture Collection (ATCC) and were cultured in DMEM medium (Gibco) supplemented with 10% fetal bovine serum (FBS) (PAN-Biotech) and 1% penicillin/streptomycin (Gibco). Cells were cultured in a humidified incubator at 37 °C in the presence of 5% CO2. The identity of the cells was validated by STR profiling and the cells were tested negative for mycoplasma contamination.
(§2) Electroporation of full-length KRas constructs (KRasWT, KRasG13C, KRasG13C-edaGDP, KRasG13C:acetyledaGDP and KRasG13C-edaGppCp) was performed based on the protocol described by [Alex et al., 2019] using the Neon Transfection System Kit (Thermo Fisher). For electroporation, 3 million cells per experiment were harvested by trypsinization, washed with PBS, and resuspended in 85 µL of the electroporation buffer R (Thermo Fisher). Increasing amounts of recombinant protein samples for each construct (0, 50, 100, 200 and 300 µg) were diluted 1:1 in buffer R followed by the addition of 30 µL of this protein master mix to the cell suspension. This cellular slurry was loaded into a […] Neon Pipette Tip (Thermo Fisher) and electroporated with 2x35 ms pulses at 1000 V. After electroporation, the cells were washed twice with PBS (15 mL) to remove non-internalized extracellular protein and the cell pellet was resuspended in 2 mL complete growth media. Cells were transferred into six-well tissue culture plates (Sarstedt) and incubated for 24 hr at 37 °C and 5% CO2 in a humidified incubator for recovery before being processed for western blotting analysis.
After recovery of the electroporation, cells were washed twice with ice-cold PBS and lysed in 100 µL of phosphatase and protease inhibitor containing RIPA buffer (Cell Signaling Technology). Cells were incubated on ice for 30 min and then harvested by scraping followed by centrifugation at 14,000 rpm for 10 min at 4 °C. Protein concentrations were determined using the Pierce BCA protein assay (Thermo) following the manufacturer’s recommended procedure. Equal amounts of protein (10 µg) were analyzed by SDS-PAGE and transferred to Immobilon-FL PVDF membranes (Merck Millipore) using Pierce 1-step transfer buffer (Thermo) and the Pierce Power Blotter (Thermo). Membranes were washed with ddH2O for 5 min, blocked with OdysseyBlocking Buffer TBS (Li-Cor) for 1 hr at room temperature and then incubated with primary antibodies diluted in OdysseyBlocking Buffer TBS overnight at 4 °C with gentle agitation. […] Quantification of protein levels from western blots was performed using Empiria Studio (Li-Cor) (Figure 3B, C, Figure 3—figure supplements 6–9).

[3] = system: pAktS473; experiment: Electroporation into HeLa cells, western blot quantification; assay type: cell-based, human; settings: for pAkt mean fold change: mean of cell lysates
Method: as §1, §2
(§3) After recovery of the electroporation, cells were washed twice with ice-cold PBS and lysed in 100 µL of phosphatase and protease inhibitor containing RIPA buffer (Cell Signaling Technology). Cells were incubated on ice for 30 min and then harvested by scraping followed by centrifugation at 14,000 rpm for 10 min at 4 °C. Protein concentrations were determined using the Pierce BCA protein assay (Thermo) following the manufacturer’s recommended procedure. Equal amounts of protein (10 µg) were analyzed by SDS-PAGE and transferred to Immobilon-FL PVDF membranes (Merck Millipore) using Pierce 1-step transfer buffer (Thermo) and the Pierce Power Blotter (Thermo). Membranes were washed with ddH2O for 5 min, blocked with OdysseyBlocking Buffer TBS (Li-Cor) for 1 hr at room temperature and then incubated with primary antibodies diluted in OdysseyBlocking Buffer TBS overnight at 4 °C with gentle agitation. KRas (Sigma Aldrich, SAB1404011-100UG), pcRafS338 (CST, 9427), tAkt1 (CST, 2938), pAktS473 (CST, 4060), tErk (CST, 4696), pErkT202/Y204 (CST, 4370), pS6S235/236 (CST, 4858), and β-actin (CST, 4970/Sigma-Aldrich, A5441) antibodies were used to detect the individual proteins. After primary antibody incubation, membranes were washed three times with TBS-T (50 mM Tris, 150 mM NaCl, 0.05% Tween 20, pH 7.4) for 5 min before being incubated with secondary antibodies (anti-mouse IgG (H+L) (DyLight 680 Conjugate) (CST, 5470) / anti-rabbit IgG (H+L) (DyLight 800 4 X PEG Conjugate) (CST, 5151)) diluted in OdysseyBlocking Buffer TBS for 1 hr at room temperature with gentle agitation. After secondary antibody incubation, the membranes were washed three times for 5 min with TBS-T and then scanned using an OdysseyCLx imaging system (Li-Cor). Quantification of protein levels from western blots was performed using Empiria Studio (Li-Cor) (Figure 3B, C, Figure 3—figure supplements 6–9).

[4] = system: pErkT202/Y204; experiment: as above; assay type: cell-based, human; settings: for pErk mean fold change: mean of cell lysates
Method: as §1, §2, §3

[5] = system: pS6S235/236; experiment: as above; assay type: cell-based, human; settings: for pS6 mean fold change: mean of cell lysates
Method: as §1, §2, §3

[6] = system: pcRafS338; experiment: as above; assay type: cell-based, human; settings: for pcRaf mean fold change: mean of cell lysates
Method: as §1, §2, §3

[7] = system: tAkt1; experiment: as above; assay type: cell-based, human; settings: for tAkt mean fold change: mean of cell lysates
Method: as §1, §2, §3

[8] = system: tErk; experiment: as above; assay type: cell-based, human; settings: for tErk mean fold change: mean of cell lysates
Method: as §1, §2, §3

**Q.** Which results are given for “KRasG13C:acetyledaGDP: KRasG13C non-covalently loaded with acetyledaGDP, control”?
**A.** SOS-catalysed nucleotide exchange [1]: efficiently catalysed nucleotide exchange; downstream signalling (pcRaf, pAkt, pErk, pS6) [2]: activation of the Ras pathway comparable to KRasG13C was observed; pAkt fold change ([3]; 50 µg, Cell lysate 1): 0.68; pAkt fold change ([3]; 50 µg, Cell lysate 2): 2.89; pAkt fold change ([3]; 50 µg, Cell lysate 3): 3.02; pAkt mean fold change ([3]; 50 µg): 2.20; pAkt fold change ([3]; 100 µg, Cell lysate 1): 0.79; pAkt fold change ([3]; 100 µg, Cell lysate 2): 4.04; pAkt fold change ([3]; 100 µg, Cell lysate 3): 4.42; pAkt mean fold change ([3]; 100 µg): 3.08; pAkt fold change ([3]; 200 µg, Cell lysate 1): 1.19; pAkt fold change ([3]; 200 µg, Cell lysate 2): 9.05; pAkt fold change ([3]; 200 µg, Cell lysate 3): 6.20; pAkt mean fold change ([3]; 200 µg): 5.48; pAkt fold change ([3]; 300 µg, Cell lysate 1): 2.16; pAkt fold change ([3]; 300 µg, Cell lysate 2): 13.30; pAkt fold change ([3]; 300 µg, Cell lysate 3): 3.81; pAkt mean fold change ([3]; 300 µg): 6.42; pErk fold change ([4]; 50 µg, Cell lysate 1): 3.76; pErk fold change ([4]; 50 µg, Cell lysate 2): 14.50; pErk fold change ([4]; 50 µg, Cell lysate 3): 5.88; pErk mean fold change ([4]; 50 µg): 8.05; pErk fold change ([4]; 100 µg, Cell lysate 1): 5.77; pErk fold change ([4]; 100 µg, Cell lysate 2): 17.10; pErk fold change ([4]; 100 µg, Cell lysate 3): 6.22; pErk mean fold change ([4]; 100 µg): 9.70; pErk fold change ([4]; 200 µg, Cell lysate 1): 14.00; pErk fold change ([4]; 200 µg, Cell lysate 2): 22.30; pErk fold change ([4]; 200 µg, Cell lysate 3): 9.35; pErk mean fold change ([4]; 200 µg): 15.22; pErk fold change ([4]; 300 µg, Cell lysate 1): 17.00; pErk fold change ([4]; 300 µg, Cell lysate 2): 29.30; pErk fold change ([4]; 300 µg, Cell lysate 3): 10.30; pErk mean fold change ([4]; 300 µg): 18.87; pS6 fold change ([5]; 50 µg, Cell lysate 1): 1.20; pS6 fold change ([5]; 50 µg, Cell lysate 2): 4.69; pS6 fold change ([5]; 50 µg, Cell lysate 3): 4.24; pS6 mean fold change ([5]; 50 µg): 3.38; pS6 fold change ([5]; 100 µg, Cell lysate 1): 1.62; pS6 fold change ([5]; 100 µg, Cell lysate 2): 7.62; pS6 fold change ([5]; 100 µg, Cell lysate 3): 3.73; pS6 mean fold change ([5]; 100 µg): 4.32; pS6 fold change ([5]; 200 µg, Cell lysate 1): 3.38; pS6 fold change ([5]; 200 µg, Cell lysate 2): 9.20; pS6 fold change ([5]; 200 µg, Cell lysate 3): 7.24; pS6 mean fold change ([5]; 200 µg): 6.61; pS6 fold change ([5]; 300 µg, Cell lysate 1): 2.82; pS6 fold change ([5]; 300 µg, Cell lysate 2): 9.13; pS6 fold change ([5]; 300 µg, Cell lysate 3): 7.42; pS6 mean fold change ([5]; 300 µg): 6.46; pcRaf fold change ([6]; 50 µg, Cell lysate 1): 8.73; pcRaf fold change ([6]; 50 µg, Cell lysate 2): 1.10; pcRaf fold change ([6]; 50 µg, Cell lysate 3): 15.70; pcRaf mean fold change ([6]; 50 µg): 8.51; pcRaf fold change ([6]; 100 µg, Cell lysate 1): 8.39; pcRaf fold change ([6]; 100 µg, Cell lysate 2): 1.51; pcRaf fold change ([6]; 100 µg, Cell lysate 3): 22.70; pcRaf mean fold change ([6]; 100 µg): 10.87; pcRaf fold change ([6]; 200 µg, Cell lysate 1): 13.70; pcRaf fold change ([6]; 200 µg, Cell lysate 2): 2.17; pcRaf fold change ([6]; 200 µg, Cell lysate 3): 32.40; pcRaf mean fold change ([6]; 200 µg): 16.09; pcRaf fold change ([6]; 300 µg, Cell lysate 1): 10.10; pcRaf fold change ([6]; 300 µg, Cell lysate 2): 3.88; pcRaf fold change ([6]; 300 µg, Cell lysate 3): 30.30; pcRaf mean fold change ([6]; 300 µg): 14.76; tAkt fold change ([7]; 50 µg, Cell lysate 1): 0.92; tAkt fold change ([7]; 50 µg, Cell lysate 2): 2.42; tAkt fold change ([7]; 50 µg, Cell lysate 3): 1.53; tAkt mean fold change ([7]; 50 µg): 1.62; tAkt fold change ([7]; 100 µg, Cell lysate 1): 1.23; tAkt fold change ([7]; 100 µg, Cell lysate 2): 2.03; tAkt fold change ([7]; 100 µg, Cell lysate 3): 1.95; tAkt mean fold change ([7]; 100 µg): 1.74; tAkt fold change ([7]; 200 µg, Cell lysate 1): 1.36; tAkt fold change ([7]; 200 µg, Cell lysate 2): 3.63; tAkt fold change ([7]; 200 µg, Cell lysate 3): 1.80; tAkt mean fold change ([7]; 200 µg): 2.26; tAkt fold change ([7]; 300 µg, Cell lysate 1): 0.81; tAkt fold change ([7]; 300 µg, Cell lysate 2): 4.18; tAkt fold change ([7]; 300 µg, Cell lysate 3): 2.17; tAkt mean fold change ([7]; 300 µg): 2.39; tErk fold change ([8]; 50 µg, Cell lysate 1): 0.88; tErk fold change ([8]; 50 µg, Cell lysate 2): 0.96; tErk fold change ([8]; 50 µg, Cell lysate 3): 0.92; tErk mean fold change ([8]; 50 µg): 0.92; tErk fold change ([8]; 100 µg, Cell lysate 1): 0.68; tErk fold change ([8]; 100 µg, Cell lysate 2): 0.93; tErk fold change ([8]; 100 µg, Cell lysate 3): 0.86; tErk mean fold change ([8]; 100 µg): 0.82; tErk fold change ([8]; 200 µg, Cell lysate 1): 0.80; tErk fold change ([8]; 200 µg, Cell lysate 2): 0.93; tErk fold change ([8]; 200 µg, Cell lysate 3): 0.97; tErk mean fold change ([8]; 200 µg): 0.90; tErk fold change ([8]; 300 µg, Cell lysate 1): 0.62; tErk fold change ([8]; 300 µg, Cell lysate 2): 0.90; tErk fold change ([8]; 300 µg, Cell lysate 3): 1.12; tErk mean fold change ([8]; 300 µg): 0.88
